# Results reported in patent publication US6362181B1, “Isoquinolones” (Warner-Lambert Company, priority 1996, dated 2002).
# Where a name gives a salt, the structure may show the parent alone.
# Tests used:
# [1] = test system: E. coli B90; assay: Antibacterial assay, standard microtitration, MIC; format: cell-based; settings: Escherichia coli, Gram negative, read-out: Minimum Inhibitory Concentrations, E. coli B90
# Experimental: (§1) The compounds of the present invention were tested against an assortment of gram negative and gram positive organisms using standard microtitration techniques (Cohen, et al., Antimicrob. Agents Chemother., 1985;28:766; Heifetz, et al. Antimicrob. Agents Chemother., 1974;6:124).
# [2] = test system: E. coli MC4100; assay: Antibacterial assay, standard microtitration, MIC; format: cell-based; settings: Escherichia coli, Gram negative, read-out: Minimum Inhibitory Concentrations, E. coli MC4100
# Experimental: as §1
# [3] = test system: S. pyogenes C203; assay: Antibacterial assay, standard microtitration, MIC; format: cell-based; settings: Streptococcus pyogenes, Gram positive, read-out: Minimum Inhibitory Concentrations, S. pyogenes C203
# Experimental: as §1
# [4] = test system: S. aureus 29213; assay: Antibacterial assay, standard microtitration, MIC; format: cell-based; settings: Staphylococcus aureus, Gram positive, read-out: Minimum Inhibitory Concentrations, S. aureus 29213
# Experimental: as §1
# [5] = test system: E. coli To1C; assay: Antibacterial assay, standard microtitration, MIC; format: cell-based; settings: Escherichia coli, TO1C, read-out: Minimum Inhibitory Concentrations, E. coli To1C
# Experimental: as §1
# [6] = test system: B. subtilis RB1; assay: Antibacterial assay, standard microtitration, MIC; format: cell-based; settings: Bacillus subtilis, Gram positive, read-out: Minimum Inhibitory Concentrations, B. subtilis RB1
# Experimental: as §1
Structure (SMILES),melting point,MIC [1],MIC [2],MIC [3],MIC [4],MIC [5],MIC [6]
O=C1c2cccc3c(N4CCNCC4)c([N+](=O)[O-])cc(c23)C(=O)N1O,300 to 302 °C,,,,,,
NCC1CCN(c2c(Cl)cc3c4c(cccc24)C(=O)N(O)C3=O)C1 (stereo not shown) (as salt: HCl) [Example 85],229 to 232 °C,,,,,,
CC1(CN)CCN(c2c(Cl)cc3c4c(cccc24)C(=O)N(O)C3=O)C1 (stereo not shown) (as salt: TFA) [Example 89],160 to 166 °C,,,,,,
CN1CCN(c2c(Cl)cc3c4c(cccc24)C(=O)N(O)C3=O)CC1 (as salt: TFA) [Example 98],> 250 °C,,,,,,
"CCOc1cc2c3c(cccc3c1)C(=O)N(O)C2=O [Example 14, 5-Ethoxy-2-hydroxy-benzo[de]isoquinoline-1,3-dione]",,0.25 µg/mL,2 µg/mL,> 64 µg/mL,8 µg/mL,0.13 µg/mL,1 µg/mL
"O=C1c2cccc3c(N4CCCC4)ccc(c23)C(=O)N1O [Example 18, 2-Hydroxy-6-(pyrrolidin-1-yl)-benzo[de]isoquinoline-1,3-dione]",,4 µg/mL,> 64 µg/mL,4 µg/mL,1 µg/mL,1 µg/mL,2 µg/mL
"Cc1cc2c3c(cccc3c1)C(=O)N(O)C2=O [Example 21, 2-Hydroxy-5-methyl-benzo[de]isoquinoline-1,3-dione]",,2 µg/mL,8 µg/mL,64 µg/mL,16 µg/mL,1 µg/mL,4 µg/mL
"CC(=O)OCCOc1cc2c3c(cccc3c1)C(=O)N(O)C2=O [Example 23, 2-Hydroxy-5-(2-acetoxy-ethoxy)-benzo[de]isoquinoline-1,3-dione]",,2 µg/mL,16 µg/mL,> 64 µg/mL,> 64 µg/mL,1 µg/mL,4 µg/mL
"COc1cc2c3c(cccc3c1N1CCCCC1)C(=O)N(O)C2=O [Example 35, 2-Hydroxy-5-methoxy-6-(piperidin-1-yl)-benzo[de]isoquinoline-1,3-dione]",,64 µg/mL,> 64 µg/mL,4 µg/mL,1 µg/mL,64 µg/mL,2 µg/mL
"O=C1c2cccc3c4c(cc(c23)C(=O)N1O)OCOC4 [Example 45, 5-Hydroxy-11H-8,10-dioxa-5-aza-benzo[de]anthracene-4,6-dione]",,0.13 µg/mL,0.5 µg/mL,8 µg/mL,1 µg/mL,0.13 µg/mL,0.25 µg/mL
"O=C1c2ccc([N+](=O)[O-])c3c([N+](=O)[O-])ccc(c23)C(=O)N1O [Example 48, 2-Hydroxy-6,7-dinitro-benzo[de]isoquinoline-1,3-dione]",,4 µg/mL,16 µg/mL,1 µg/mL,2 µg/mL,4 µg/mL,8 µg/mL
"O=C1c2cccc3c(N4CCCCC4)c(Br)cc(c23)C(=O)N1O [Example 49, 5-Bromo-2-hydroxy-6-(piperidine-1-yl)-benzo[de]isoquinoline-1,3-dione]",,4 µg/mL,64 µg/mL,64 µg/mL,2 µg/mL,8 µg/mL,1 µg/mL
"CN(C)c1c(Br)cc2c3c(cccc13)C(=O)N(O)C2=O [Example 53, 5-Bromo-6-dimethylamino-2-hydroxy-benzo[de]isoquinoline-1,3-dione]",,2 µg/mL,64 µg/mL,32 µg/mL,4 µg/mL,1 µg/mL,2 µg/mL
"Cl.N[C@H]1CCN(c2c(Br)cc3c4c(cccc24)C(=O)N(O)C3=O)C1 [Example 54, (S)-6-(3-Amino-pyrrolidin-1-yl)-5-bromo-2-hydroxy-1H-benzo[de]isoquinoline-1,3-dione, Hydrochloride]",,0.5 µg/mL,2 µg/mL,4 µg/mL,8 µg/mL,0.5 µg/mL,2 µg/mL
"N#Cc1cc2c3c(cccc3c1N1CCCC1)C(=O)N(O)C2=O [Example 57, 5-Cyano-2-hydroxy-6-(pyrrolidin-1-yl)-benzo[de]isoquinoline-1,3-dione]",,0.5 µg/mL,32 µg/mL,32 µg/mL,4 µg/mL,0.5 µg/mL,1 µg/mL
"CC(=O)Nc1cc2c3c(cccc3c1N1CCCC1)C(=O)N(O)C2=O [Example 64, 5-Acetamido-2-hydroxy-6-(pyrrolidin-1yl)-benzo[de]isoquinoline-1,3-dione]",,32 µg/mL,> 64 µg/mL,> 64 µg/mL,> 64 µg/mL,16 µg/mL,64 µg/mL
CC(=O)Nc1cc2c3c(cccc3c1N1CCCCC1)C(=O)C(O)C2=O (stereo not shown) [Example 65],252 to 255 °C,,,,,,
CC(=O)Nc1cc2c3c(cccc3c1[SH]1CCNCC1)C(=O)C(O)C2=O (stereo not shown) [Example 67],292 to 295 °C,,,,,,
Nc1cc2c3c(cccc3c1N1CCCCC1)C(=O)N(O)C2=O [Example 71],244 to 248 °C,4 µg/mL,> 64 µg/mL,16 µg/mL,2 µg/mL,4 µg/mL,2 µg/mL
